These results are taken from US10428018B2, “ROR gamma (RORy) modulators” (LEAD PHARMA HOLDING B.V., priority 2015, dated 2019).

The target in one assay is T1, RORγ (Homo sapiens, UniProt P51449).
T1 construct: expressed in transfected cells; host or cells: 293FT cells (Invitrogen), expression vector pFN26A (Promega)
T1 sequence (P51449 269-508 limits assumed): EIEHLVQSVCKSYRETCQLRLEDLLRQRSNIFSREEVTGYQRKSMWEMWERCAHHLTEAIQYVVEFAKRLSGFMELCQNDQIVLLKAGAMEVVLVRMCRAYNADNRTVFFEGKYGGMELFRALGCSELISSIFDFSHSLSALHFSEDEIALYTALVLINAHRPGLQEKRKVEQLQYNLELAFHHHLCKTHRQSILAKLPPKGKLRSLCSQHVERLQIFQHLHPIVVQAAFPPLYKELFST
The assay can be described thus: RORγ GAL4 reporter gene assay (luciferase readout, 293FT cells). The class given is cell-based. The conditions noted are these: inhibition of RORγ (GAL4-RORγ-LBD) luciferase signal in transfected 293FT cells, overnight incubation; read-out: mean pIC50 (converted). The method, then: Example inhibitors 1-45 were tested for their ability to inhibit RORγ activity in a RORγ GAL4 reporter gene assay.
The RORγ ligand-binding domain (LBD) was fused to the yeast GAL4 DNA binding domain (DBD) and placed under the control of the human cytomegalovirus (CMV) immediate early promoter, using expression vector pFN26A (Promega) and standard recombinant DNA cloning methods.
To monitor the inhibitory effect of compounds on RORγ, a transcriptional reporter construct was used. The pGL4.35 vector (Promega) contains nine copies of the GAL4 Upstream Activator Sequence (UAS). This sequence drives the transcription of the luciferase reporter gene luc2P in response to binding of a fusion protein containing the GAL4 DNA binding domain, as for example expressed by the GAL4-RORγ-LBD and GAL4-VP16 expression vectors described above.
The day after transfection, cells were plated into 96 well plates, test compound was added and the plates were incubated overnight. Subsequently, the firefly luciferase activity was quantified using luciferase detection reagent and luminescence readout.
1500 μL of this reagent mixture was added to 5 μg of GAL4 fusion protein expression vector and 5 μg of the transcriptional reporter construct, and incubated at RT for 20 minutes.
Subsequently, the cells were washed with Phosphate Buffered Saline (PBS) (Lonza), after which the PBS was removed. To dissociate the cells, 1 ml of TrypLE Express (Invitrogen) was added to the flask, followed by incubation at RT until the cells visually started to detach. Cells were collected in 5 mL of assay medium (DMEM culture medium (Lonza), 10% dialyzed FBS (Invitrogen) and Pen/Strep (Lonza)) to achieve a single cell suspension. 10×10^6 cells were spun down and re-suspended in 10 mL of assay medium.
For compound screening, the cells were harvested (as described above) and counted. […] 80 μL of cell suspension (60,000 cells) was plated per well into a white, flat bottom, tissue culture treated, 96 well screening plates (Greiner).
Subsequently, these solutions were diluted to 5× the final test concentration in two 10-fold-dilution steps in assay medium. The final DMSO concentration of the 5× test compound solution was 1%. 20 μL of the 5× test compound solution was added to each test well of the 96 well plate previously plated with 80 μl cell suspension, resulting in the final test concentration with 0.2% DMSO.
For the luciferase readout, the luciferase reagent (Britelite Plus, Perkin Elmer) was brought to RT. To each test well of the screening plates, 100 μL of 2.5-fold diluted Britelite Plus reagent was added, followed by incubation at RT for 10 minutes. The luciferase luminescence signal was measured using a Wallac Victor Microplate Reader (Perkin Elmer).

Assay [1] deals with IL-17A production in anti-CD3/anti-CD28 stimulated peripheral blood mononuclear cells (PBMCs). The assay can be described thus: Peripheral blood mononuclear cell (PBMC) IL-17 assay. To be noted: Homo sapiens, 120 h.
Procedure: This assay is designed to measure the levels of IL-17A secreted from anti-CD3/anti-CD28 stimulated PBMCs with the aim of measuring RORγ mediated inhibition of IL-17A production.
The assay medium consists of 90% RPMI 1640 (Lonza), 10% heat inactivated fetal bovin serum (FBS, Lonza) and 100 U/mL penicillin/streptomycin solution.
Anti-CD3 antibody (BD Pharmingen) was diluted to 10 μg/ml in PBS (Lonza). 30 μL of 10 μg/ml anti-CD3 solution was added to the inner 60 wells, excluding any negative control wells, of a 96-well cell culture treated U-bottom plate (Greiner). Plates were incubated overnight (16-24 hours) at 37° C. and 5% CO2.
Peripheral blood mononuclear cells were separated from buffy coats (Sanquin) using Ficoll-Paque PREMIUM separation medium (GE Healthcare Life Sciences) according to manufacturer's protocol and re-suspended in assay medium at 37° C.
Test compounds were diluted, starting from a 10 mM dimethylsulfoxide (DMSO) stock solution, to serial dilutions in DMSO at 200× the final test concentration. Subsequently, these solutions were diluted in two dilution steps in assay medium to 10× the final test concentration. The DMSO concentration of the 10× test compound solution was 5%.
Anti-CD28 antibody (BD Pharmingen) was diluted to 20 μg/mL in PBS.
For compound screening, the anti-CD3 coated plates were washed three times with PBS, the wells were subsequently aspirated using vacuum. To each screening well 80 μL of the PBMC suspension, 10 μL of the anti-CD28 solution and 10 μL of the 1 Ox test compound solution was added, resulting in the final test concentration with 0.5% DMSO. All outer wells were filled with assay medium to prevent evaporation. Plates were incubated for 5 days at 37° C. and 5% CO2.
After incubation the plates were spun down at 1500 rpm for 4 minutes and the supernatant was collected. Subsequently, the IL-17A levels in the supernatants was determined using an IL-17 ELISA kit (human IL-17 DuoSet, R&D systems) according to manufacturer's protocol.
The half maximum inhibitory concentration (IC50) values for the test compounds were calculated from the IL-17A signal using GraphPad Prism software (GraphPad Software).
The mark [2] stands for this setting: read-out: mean pIC50, inhibition of IL-17A secretion (ELISA), human PBMCs, anti-CD3/anti-CD28 stimulated, 5 days (converted).

Where two headings read alike, the source gives them in different places. Bounds are passed on as bounds.

For the compound `CCS(=O)(=O)c1ccc(CC(=O)Nc2ccc(C(=O)N3CCCCC3c3ccccc3)cc2)cc1` (stereo not drawn) [Example 33, 2-[4-(ethanesulfonyl)phenyl]-N-[4-(2-phenylpiperidine-1-carbonyl)phenyl]acetamide], at RORγ, the IC50 is at most 100 nM.
The same measure, in the same setting: then `CCN(C(=O)c1ccc(NC(=O)Cc2ccc(S(=O)(=O)CC)cc2)cc1)c1cc(C)no1` [Example 3, 4-{2-[4-(ethanesulfonyl)phenyl]acetamido}-N-ethyl-N-(3-methyl-1,2-oxazol-5-yl)benzamide], with at most 100 nM.
Turning to `CCS(=O)(=O)c1ccc(CC(=O)Nc2ccc(C(=O)N(c3ccccn3)C3CC3)cc2)cc1` [Example 40, N-cyclopropyl-4-{2-[4-(ethanesulfonyl)phenyl]acetamido}-N-(pyridin-2-yl)benzamide], on RORγ, the IC50 was at most 1000 nM.
Same read-out and setting: then `CCCN(C(=O)c1ccc(NC(=O)Cc2ccc(S(=O)(=O)CC)cc2)cc1)c1cccnc1` [Example 31, 4-{2-[4-(ethanesulfonyl)phenyl]acetamido}-N-propyl-N-(pyridin-3-yl)benzamide], with at most 100 nM.
Consider `CCN(C(=O)c1ccc(NC(=O)Cc2ccc(S(=O)(=O)CC)cc2)nc1)c1ccccc1` [Example 24, 6-{2-[4-(ethanesulfonyl)phenyl]acetamido}-N-ethyl-N-phenylpyridine-3-carboxamide], for which the IC50 on RORγ was at most 1000 nM.
For the compound `CCS(=O)(=O)c1ccc(CC(=O)Nc2ccc(C(=O)N(c3ccccc3)C(C)(C)C)cc2)cn1` [Example 44, N-tert-butyl-4-{2-[6-(ethanesulfonyl)pyridin-3-yl]acetamido}-N-phenylbenzamide], the IC50 (at RORγ; in assay [1] (setting [2])) was at most 100 nM in each case.
As for `CCS(=O)(=O)c1ccc(CC(=O)Nc2ccc(C(=O)N(c3ccc(C)cc3)C(C)(C)C3CCCO3)cc2)cc1` (stereo not drawn) [Example 17, 4-{2-[4-(ethanesulfonyl)phenyl]acetamido}-N-(4-methylphenyl)-N-[2-(oxolan-2-yl)propan-2-yl]benzamide], the IC50 in assay [1] (setting [2]) was at most 100 nM.
Still for that read-out and setting: in the case of `CCCN(C(=O)c1ccc(NC(=O)Cc2ccc(S(=O)(=O)CC)cc2)cc1)c1cc(C)nn1C` [Example 6, N-(1,3-dimethyl-1H-pyrazol-5-yl)-4-{2-[4-(ethanesulfonyl)phenyl]acetamido}-N-propylbenzamide] it was at most 100 nM.
`CCS(=O)(=O)c1ccc(CC(=O)Nc2ccc(C(=O)N(C)Cc3ccco3)cc2)cc1` [Example 37, 4-{2-[4-(ethanesulfonyl)phenyl]acetamido}-N-(furan-2-ylmethyl)-N-methylbenzamide]: the IC50 on RORγ was at most 1000 nM.
Turning to `CCN(C(=O)c1ccc(NC(=O)Cc2ccc(S(=O)(=O)CC)cc2)cc1)c1nc(C)c(C)s1` [Example 13, N-(4-methyl-5-methyl-1,3-thiazol-2-yl)-4-{2-[4-(ethanesulfonyl)phenyl]acetamido}-N-ethylbenzamide], in assay [1] (read-out:), the IC50 was at most 100 nM.
For `CCS(=O)(=O)c1ccc(CC(=O)Nc2ccc(C(=O)N(C)Cc3ccccc3)cc2)cc1` [Example 26, N-benzyl-4-{2-[4-(ethanesulfonyl)phenyl]acetamido}-N-methylbenzamide], at RORγ, the IC50 is at most 1000 nM.
For `CCS(=O)(=O)c1ccc(CC(=O)Nc2ccc(C(=O)N(c3ccccc3)C3CC(F)(F)C3)cc2)cc1` [Example 21, N-(3,3-difluorocyclobutyl)-4-{2-[4-(ethanesulfonyl)phenyl]acetamido}-N-phenylbenzamide], in assay [1] (setting [2]), the IC50 is at most 100 nM.
Regarding `CCS(=O)(=O)c1ccc(CC(=O)Nc2ccc(C(=O)N3CCCc4ccccc43)cc2)cc1` [Example 28, 2-[4-(ethanesulfonyl)phenyl]-N-[4-(1,2,3,4-tetrahydroquinoline-1-carbonyl)phenyl]acetamide], at RORγ, the IC50 is at most 100 nM.
Same read-out and setting: in the case of `CCS(=O)(=O)c1ccc(CC(=O)Nc2ccc(C(=O)N(C)c3ccccc3)cc2)cc1` [Example 30, 4-{2-[4-(ethanesulfonyl)phenyl]acetamido}-N-methyl-N-phenylbenzamide] it was at most 100 nM; in that of `CCS(=O)(=O)c1ccc(CC(=O)Nc2ccc(C(=O)N3CCCC3c3ccccc3)cc2)cc1` (stereo not drawn) [Example 29, 2-[4-(ethanesulfonyl)phenyl]-N-[4-(2-phenylpyrrolidine-1-carbonyl)phenyl]acetamide], at most 1000 nM.
The same measure, in the same setting: then `CCN(C(=O)c1ccc(NC(=O)Cc2ccc(S(=O)(=O)CC)nc2)cc1F)c1ccccc1` [Example 43, 4-{2-[6-(ethanesulfonyl)pyridin-3-yl]acetamido}-N-ethyl-2-fluoro-N-phenylbenzamide], with at most 1000 nM; and `CCN(C(=O)c1ccc(NC(=O)Cc2ccc(S(=O)(=O)CC)cc2)cc1)c1ccccc1` [Example 34, 4-{2-[4-(ethanesulfonyl)phenyl]acetamido}-N-ethyl-N-phenylbenzamide], with at most 10 nM.
Same read-out and setting: in the case of `CCCN(CC1CC1)C(=O)c1ccc(NC(=O)Cc2ccc(S(=O)(=O)CC)cc2)cc1` [Example 27, N-(cyclopropylmethyl)-4-{2-[4-(ethanesulfonyl)phenyl]acetamido}-N-propylbenzamide] it was at most 1000 nM; in that of `CCS(=O)(=O)c1ccc(CC(=O)Nc2ccc(C(=O)N(C)c3cc(C)on3)cc2)cc1` [Example 1, 4-{2-[4-(ethanesulfonyl)phenyl]acetamido}-N-methyl-N-(5-methyl-1,2-oxazol-3-yl)benzamide], at most 1000 nM; in that of `CCS(=O)(=O)c1ccc(CC(=O)Nc2ccc(C(=O)N(Cc3ccccc3)Cc3ccccc3)cc2)cc1` [Example 38, N,N-dibenzyl-4-{2-[4-(ethanesulfonyl)phenyl]acetamido}benzamide], at most 100 nM.
`CCN(C(=O)c1ccc(NC(=O)Cc2ccc(S(=O)(=O)CC)cc2)cc1)c1cccnc1` [Example 32, 4-{2-[4-(ethanesulfonyl)phenyl]acetamido}-N-ethyl-N-(pyridin-3-yl)benzamide]: the IC50 at RORγ was at most 1000 nM.
As for `CCN(C(=O)c1ccc(NC(=O)Cc2ccc(S(=O)(=O)CC)cc2)cc1)c1cc(C)nn1C` [Example 2, N-(1,3-dimethyl-1H-pyrazol-5-yl)-4-{2-[4-(ethanesulfonyl)phenyl]acetamido}-N-ethylbenzamide], the IC50 (on RORγ; in assay [1] (setting [2])) was at most 100 nM throughout.
In the case of `CCS(=O)(=O)c1ccc(CC(=O)Nc2ccc(C(=O)N(C)c3ccccn3)cc2)cc1` [Example 23, 4-{2-[4-(ethanesulfonyl)phenyl]acetamido}-N-methyl-N-(pyridin-2-yl)benzamide], the IC50 on RORγ is at most 1000 nM.
On the same count and under the same terms, then `CCS(=O)(=O)c1ccc(CC(=O)Nc2ccc(C(=O)N(C3CCC3)C3CCC3)cc2)cc1` [Example 35, N, N-dicyclobutyl-4-{2-[4-(ethanesulfonyl)phenyl]acetamido}benzamide], with at most 1000 nM; and `CCS(=O)(=O)c1ccc(CC(=O)Nc2ccc(C(=O)N(c3ccccn3)C3CCC3)cc2)cc1` [Example 41, N-cyclobutyl-4-{2-[4-(ethanesulfonyl)phenyl]acetamido}-N-(pyridin-2-yl)benzamide], with at most 1000 nM; and `CCS(=O)(=O)c1ccc(CC(=O)Nc2ccc(C(=O)N(c3ccc(C)cc3)C(C)(C)CO)cc2)cc1` [Example 42, 4-{2-[4-(ethanesulfonyl)phenyl]acetamido}-N-(1-hydroxy-2-methylpropan-2-yl)-N-(4-methylphenyl)benzamide], with at most 100 nM.
For `CCCN(C(=O)c1ccc(NC(=O)Cc2ccc(S(=O)(=O)CC)cc2)cc1)c1cc(C)on1` [Example 5, 4-{2-[4-(ethanesulfonyl)phenyl]acetamido}-N-(5-methyl-1,2-oxazol-3-yl)-N-propylbenzamide], the IC50 in assay [1] (setting [2]) is at most 100 nM.
Regarding `CCCN(Cc1ccccc1)C(=O)c1ccc(NC(=O)Cc2ccc(S(=O)(=O)CC)cc2)cc1` [Example 25, N-benzyl-4-{2-[4-(ethanesulfonyl)phenyl]acetamido}-N-propylbenzamide], the IC50 on RORγ was at most 100 nM.
